In ChEMBL document CHEMBL5046255, “Design and synthesis of dual inhibitors targeting snail and histone deacetylase for the treatment of solid tumour cancer” (Eur J Med Chem, 2022):
The source made the active and inactive calls. No cut-off for these calls is given here.

Tests used:
HCT-116 [1] = experiment: Antiproliferative activity against human HCT-116 cells assessed as cell viability at 1 uM incubated for 72 hrs by luminescence assay; type: functional, cell-based; details: HCT-116, 72 h
[2] = Binding affinity to SNAI1 (unknown origin) assessed as dissociation constant; set-up: species or system Homo sapiens
HL-60 = experiment: Antiproliferative activity against human HL-60 cells assessed as growth inhibition incubated for 72 hrs by luminescence assay; type: functional
K562 = experiment: Antiproliferative activity against human K562 cells assessed as growth inhibition incubated for 72 hrs by luminescence assay; type: functional
SR = experiment: Antiproliferative activity against human SR cells assessed as growth inhibition incubated for 72 hrs by luminescence assay; type: functional
NCI-H226 = experiment: Antiproliferative activity against human NCI-H226 cells assessed as growth inhibition incubated for 72 hrs by luminescence assay; type: functional
NCI-H23 = experiment: Antiproliferative activity against human NCI-H23 cells assessed as growth inhibition incubated for 72 hrs by luminescence assay; type: functional
NCI-H322M = experiment: Antiproliferative activity against human NCI-H322M cells assessed as growth inhibition incubated for 72 hrs by luminescence assay; type: functional
COLO 205 = experiment: Antiproliferative activity against human COLO 205 cells assessed as growth inhibition incubated for 72 hrs by luminescence assay; type: functional
HT-29 = experiment: Antiproliferative activity against human HT-29 cells assessed as growth inhibition incubated for 72 hrs by luminescence assay; type: functional
KM12 = experiment: Antiproliferative activity against human KM12 cells assessed as growth inhibition incubated for 72 hrs by luminescence assay; type: functional
SF-268 = experiment: Antiproliferative activity against human SF-268 cells assessed as growth inhibition incubated for 72 hrs by luminescence assay; type: functional
SF-295 = experiment: Antiproliferative activity against human SF-295 cells assessed as growth inhibition incubated for 72 hrs by luminescence assay; type: functional
SF-539 = experiment: Antiproliferative activity against human SF-539 cells assessed as growth inhibition incubated for 72 hrs by luminescence assay; type: functional
M14 = experiment: Antiproliferative activity against human M14 cells assessed as growth inhibition incubated for 72 hrs by luminescence assay; type: functional
MDA-MB-435 = experiment: Antiproliferative activity against human MDA-MB-435 cells assessed as growth inhibition incubated for 72 hrs by luminescence assay; type: functional
SK-MEL-2 = experiment: Antiproliferative activity against human SK-MEL-2 cells assessed as growth inhibition incubated for 72 hrs by luminescence assay; type: functional
SK-MEL-5 = experiment: Antiproliferative activity against human SK-MEL-5 cells assessed as growth inhibition incubated for 72 hrs by luminescence assay; type: functional
IGROV-1 = experiment: Antiproliferative activity against human IGROV-1 cells assessed as growth inhibition incubated for 72 hrs by luminescence assay; type: functional
OVCAR-3 = experiment: Antiproliferative activity against human OVCAR-3 cells assessed as growth inhibition incubated for 72 hrs by luminescence assay; type: functional
OVCAR-5 = experiment: Antiproliferative activity against human OVCAR-5 cells assessed as growth inhibition incubated for 72 hrs by luminescence assay; type: functional
NCI/ADR-RES = experiment: Antiproliferative activity against human NCI/ADR-RES cells assessed as growth inhibition incubated for 72 hrs by luminescence assay; type: functional
MCF7 = experiment: Antiproliferative activity against human MCF7 cells assessed as growth inhibition incubated for 72 hrs by luminescence assay; type: functional
MDA-MB-231 = experiment: Antiproliferative activity against human MDA-MB-231 cells assessed as growth inhibition incubated for 72 hrs by luminescence assay; type: functional
Hs-578T = experiment: Antiproliferative activity against human Hs-578T cells assessed as growth inhibition incubated for 72 hrs by luminescence assay; type: functional
T47D = experiment: Antiproliferative activity against human T47D cells assessed as growth inhibition incubated for 72 hrs by luminescence assay; type: functional
MDA-MB-468 = experiment: Antiproliferative activity against human MDA-MB-468 cells assessed as growth inhibition incubated for 72 hrs by luminescence assay; type: functional
786-0 = experiment: Antiproliferative activity against human 786-0 cells assessed as growth inhibition incubated for 72 hrs by luminescence assay; type: functional
SN12C = experiment: Antiproliferative activity against human SN12C cells assessed as growth inhibition incubated for 72 hrs by luminescence assay; type: functional
UO-31 = experiment: Antiproliferative activity against human UO-31 cells assessed as growth inhibition incubated for 72 hrs by luminescence assay; type: functional
Histone deacetylase 8 = Histone deacetylase 8 (Homo sapiens, UniProt Q9BY41); experiment: Inhibition of HDAC8 (unknown origin) using p53 (379 to 382 residues) (RHKK(Ac-AMC) as fluorogenic substrate incubated for 2 hrs by fluorescence based assay
Histone deacetylase 8, sequence (Q9BY41 whole entry, the tested form may be a part): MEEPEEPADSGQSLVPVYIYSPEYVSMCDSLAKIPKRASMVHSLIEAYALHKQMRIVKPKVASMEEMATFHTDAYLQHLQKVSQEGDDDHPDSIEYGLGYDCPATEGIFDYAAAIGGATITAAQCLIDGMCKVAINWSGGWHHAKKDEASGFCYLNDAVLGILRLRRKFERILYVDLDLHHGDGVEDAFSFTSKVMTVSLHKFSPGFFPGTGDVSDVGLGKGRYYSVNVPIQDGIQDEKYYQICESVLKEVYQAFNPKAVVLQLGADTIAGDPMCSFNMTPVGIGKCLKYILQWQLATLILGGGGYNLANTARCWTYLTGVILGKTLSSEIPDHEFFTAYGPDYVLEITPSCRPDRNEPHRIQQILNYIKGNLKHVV

[3] = target: Histone deacetylase (Homo sapiens) (UniProt Q13547+O15379+Q9UBN7+Q92769+Q9UQL6+Q8WUI4+Q9BY41+Q96DB2+P56524+Q9UKV0+Q969S8); experiment: Inhibition of HDAC in human HCT-116 cells assessed as increase in Ac-H4 expression at 50 nM measured after 24 hrs by western blot analysis; type: cell-based
HCT-116 [4] = experiment: Effect on SNAI1 protein expression in human HCT-116 cells at 75 nM measured after 24 hrs by western blot analysis; type: functional, cell-based
[5] = Metabolic stability in human liver microsomes assessed as half life incubated for 10 mins by LC-MS/MS analysis; type: ADME, Microsome
[6] = Metabolic stability in monkey liver microsomes assessed as half life incubated for 10 mins by LC-MS/MS analysis; type: ADME, Macaca mulatta, Microsome; details: rhesus monkey
[7] = Metabolic stability in rat liver microsomes assessed as half life incubated for 10 mins by LC-MS/MS analysis; type: ADME, Microsome
[8] = Metabolic stability in rat liver microsomes assessed as intrinsic clearance incubated for 10 mins by LC-MS/MS analysis; type: ADME, Microsome; details: read-out: CLH
[9] = Metabolic stability in human plasma assessed as half life at 100 uM measured upto 120 mins by LC-MS/MS analysis; type: ADME, cell-free
[10] = Metabolic stability in rat plasma assessed as half life at 100 uM measured upto 120 mins by LC-MS/MS analysis; type: ADME, cell-free
[11] = Metabolic stability in monkey plasma assessed as parent compound remaining at 100 uM measured after 2 hrs by LC-MS/MS analysis; type: ADME, cell-free, Macaca mulatta; details: rhesus monkey, read-out: Stability
[12] = Cmax in Sprague-Dawley rat at 10 mg/kg, po measured up to 24 hrs by LC-MS/MS analysis; type: ADME, organism-based; set-up: route oral, dose 10 mg/kg, time <=24; details: in vivo
[13] = Clearance in Sprague-Dawley rat at 1 mg/kg, iv measured up to 24 hrs by LC-MS/MS analysis; type: ADME, organism-based; details: in vivo
[14] = Volume of distribution at steady state in Sprague-Dawley rat at 1 mg/kg, iv measured up to 24 hrs by LC-MS/MS analysis; type: ADME, organism-based; details: in vivo, read-out: Vdss
[15] = AUC (0 to t) in Sprague-Dawley rat at 10 mg/kg, po measured up to 24 hrs by LC-MS/MS analysis; type: ADME, organism-based; set-up: route oral, dose 10 mg/kg, time <=24; details: in vivo
[16] = Oral bioavailability in Sprague-Dawley rat at 10 mg/kg measured up to 24 hrs by LC-MS/MS analysis; type: ADME, organism-based; details: in vivo

Cc1cc(Nc2nc(SCc3ccc(C(=O)Nc4ccc(F)cc4N)cc3)nn3cccc23)n[nH]1 gave an IC50 (HCT-116 [1]) of 75.1 nM, a Kd [2] of 180 nM and a GI50 (HL-60) of 268 nM. It also gave a GI50 (K562) of 48.7 nM, a GI50 (SR) of 68 nM and a GI50 (NCI-H226) of 2700 nM. It also gave a GI50 (NCI-H23) of 603 nM, a GI50 (NCI-H322M) of 1010 nM and a GI50 (COLO 205) of 296 nM. The GI50 (HT-29) was 322 nM, the GI50 (KM12) was 284 nM and the GI50 (SF-268) was 1120 nM. For the same molecule, the GI50 (SF-295) was 354 nM, the GI50 (SF-539) was 282 nM and the GI50 (M14) was 289 nM. For the same molecule, the GI50 (MDA-MB-435) was 36.1 nM, the GI50 (SK-MEL-2) was 617 nM and the GI50 (SK-MEL-5) was 334 nM. For the same molecule, the GI50 (IGROV-1) was 558 nM, the GI50 (OVCAR-3) was 202 nM and the GI50 (OVCAR-5) was 657 nM. It also gave a GI50 (NCI/ADR-RES) of 1980 nM, a GI50 (MCF7) of 51.8 nM and a GI50 (MDA-MB-231) of 854 nM. The GI50 (Hs-578T) was 429 nM, the GI50 (T47D) was 1120 nM and the GI50 (MDA-MB-468) was 432 nM. It also gave a GI50 (786-0) of 466 nM, a GI50 (SN12C) of 1250 nM and a GI50 (UO-31) of 1330 nM. For the same molecule, the IC50 (Histone deacetylase 8) was > 10000 nM, the Activity [3] was “Active” and the Activity (HCT-116 [4]) was “Active”. It also gave a half-life [5] of 1.1 h, a half-life [6] of 0.463 h and a half-life [7] of 0.21 h. It also gave a microsomal CLint [8] of 110 µL/min/mg, a half-life at 100 µM [9] of 5.62 h and a half-life at 100 µM [10] of 8.58 h. It also gave a remaining at 2 h, 100 µM [11] of 82.4%, a Cmax [12] of 6.61 ng/mL and a clearance [13] of 24.2 mL/min/kg. It also gave a Vd [14] of 1.06 L/kg, an AUCt [15] of 52.1 ng·h/mL and an F [16] of 7.3%.
